Reference: patent US20240376074A1, “NAMPT INHIBITORS AND USES THEREOF” (Remedy Plan, Inc., priority 2021, published 2024)

Molecular target: T1, NAMPT (Homo sapiens, UniProt P43490)
T1 construct: purchased Abcam ab221819
Assay: NAMPT Activity Assay (Abcam #ab221819)
Format: biochemical
Settings: purified NAMPT, percent inhibition from OD450 nm; compound concentration not given
Procedure: The NAMPT Activity Assay (Abcam #ab221819) was performed following manufacturers two-step reaction protocol. Briefly, compounds were added to a clear 96-well plate using the HP D300e Digital Dispenser. Purified NAMPT was added to all wells except the No NAMPT controls. Reaction Mix #1 was added to each well and the plate was incubated at 30*C for 1 hr followed by the addition of Reaction Mix #2. Absorbance was measured at OD450 nm using a multimode plate reader. Readings were recorded for 5 minutes and percent inhibition was calculated using: (1-(OD450 nm compound/OD450nm no drug))*100.

T1 sequence (P43490 whole entry): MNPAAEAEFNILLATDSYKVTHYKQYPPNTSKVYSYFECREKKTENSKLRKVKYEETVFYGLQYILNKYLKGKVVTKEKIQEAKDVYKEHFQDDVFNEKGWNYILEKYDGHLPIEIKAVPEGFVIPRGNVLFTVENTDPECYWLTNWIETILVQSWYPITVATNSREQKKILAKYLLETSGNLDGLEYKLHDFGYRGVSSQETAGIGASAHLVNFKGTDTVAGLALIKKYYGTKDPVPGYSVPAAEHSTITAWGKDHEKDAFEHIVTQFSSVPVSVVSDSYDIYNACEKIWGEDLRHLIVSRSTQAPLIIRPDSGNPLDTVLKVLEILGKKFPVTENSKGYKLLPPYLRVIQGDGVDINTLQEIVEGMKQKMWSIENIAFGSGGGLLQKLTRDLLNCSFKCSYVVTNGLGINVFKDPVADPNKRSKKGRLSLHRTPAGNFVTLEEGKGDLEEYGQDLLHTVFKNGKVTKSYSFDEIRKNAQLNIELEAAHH

NAMPT Inhibition Code*, A (*A = <33% inhibition):
CC(=O)N(CC1CC1)c1ccc(-c2ccc(C(=O)NCc3cscn3)cn2)cc1Cl [I-T2354, 6-[4-[acetyl(cyclopropylmethyl)amino]-3-chloro-phenyl]-N-(thiazol-4-ylmethyl)pyridine-3-carboxamide]
CC(=O)N(CC1CC1)c1ccc(-c2ccc(C(=O)NCc3cncs3)cn2)cc1Cl [I-T2355, 6-[4-[acetyl(cyclopropylmethyl)amino]-3-chloro-phenyl]-N-(thiazol-5-ylmethyl)pyridine-3-carboxamide]
CC(=O)N(CC1CC1)c1ccc(-c2ccc(C(=O)NCc3nccs3)cn2)cc1Cl [I-T2356, 6-[4-[acetyl(cyclopropylmethyl)amino]-3-chloro-phenyl]-N-(thiazol-2-ylmethyl)pyridine-3-carboxamide]
CC(=O)N(CC1CC1)c1ccc(-c2ccc(C(=O)NCc3ncco3)cn2)cc1Cl [I-T2364, 6-[4-[acetyl(cyclopropylmethyl)amino]-3-chloro-phenyl]-N-(oxazol-2-ylmethyl)pyridine-3-carboxamide]
CC(=O)N(CC1CC1)c1ccc(-c2ccc(C(=O)NCCCc3cnn(C)c3)cn2)cc1Cl [I-T2366, 6-[4-[acetyl(cyclopropylmethyl)amino]-3-chloro-phenyl]-N-[3-(1-methylpyrazol-4-yl)propyl]pyridine-3-carboxamide]
CCOc1ccc(CNC(=O)c2ccc(-c3ccc(N(CC4CC4)C(C)=O)c(Cl)c3)nc2)cn1 [I-T2373, 6-[4-[acetyl(cyclopropylmethyl)amino]-3-chloro-phenyl]-N-[(6-ethoxy-3-pyridyl)methyl]pyridine-3-carboxamide]

NAMPT Inhibition Code*, B (B = >33 to <66% inhibition):
CC(=O)N(CC1CC1)c1ccc(-c2ccc(C(=O)NCc3cccs3)cn2)cc1Cl [I-T2352, 6-[4-[acetyl(cyclopropylmethyl)amino]-3-chloro-phenyl]-N-(2-thienylmethyl)pyridine-3-carboxamide]
CC(=O)N(CC1CC1)c1ccc(-c2ccc(NC(=O)CCc3ccc(F)nc3)cn2)cc1Cl [I-T2384, N-[6-[4-[acetyl(cyclopropylmethyl)amino]-3-chloro-phenyl]-3-pyridyl]-3-(6-fluoro-3-pyridyl)propanamide]

NAMPT Inhibition Code*, C (C = ≥66% inhibition):
CC(=O)N(CC1CC1)c1ccc(-c2ccc(C(=O)NCCC3CCCCC3)cn2)cc1Cl [I-T2348, 6-[4-[acetyl(cyclopropylmethyl)amino]-3-chloro-phenyl]-N-(2-cyclohexylethyl)pyridine-3-carboxamide]
CC(=O)N(CC1CC1)c1ccc(-c2ccc(C(=O)NCCc3ccsc3)cn2)cc1Cl [I-T2353, 6-[4-[acetyl(cyclopropylmethyl)amino]-3-chloro-phenyl]-N-[2-(3-thienyl)ethyl]pyridine-3-carboxamide]
CC(=O)N(CC1CC1)c1ccc(-c2ccc(C(=O)NCCc3cncs3)cn2)cc1Cl [I-T2360, 6-[4-[acetyl(cyclopropylmethyl)amino]-3-chloro-phenyl]-N-(2-thiazol-5-ylethyl)pyridine-3-carboxamide]
CC(=O)N(CC1CC1)c1ccc(-c2ccc(NC(=O)CCc3cccnc3F)cn2)cc1Cl [I-T2369]
CC(=O)N(CC1CC1)c1ccc(-c2ccc(C(=O)NCc3ccc(Br)nc3)cn2)cc1Cl [I-T2370, 6-[4-[acetyl(cyclopropylmethyl)amino]-3-chloro-phenyl]-N-[(6-bromo-3-pyridyl)methyl]pyridine-3-carboxamide]
CC(=O)N(CC1CC1)c1ccc(-c2ccc(C(=O)NCc3ccc(C#N)nc3)cn2)cc1Cl [I-T2371, 6-[4-[acetyl(cyclopropylmethyl)amino]-3-chloro-phenyl]-N-[(6-cyano-3-pyridyl)methyl]pyridine-3-carboxamide]
